# Measurements as given in PubChem BioAssay AID2060499 (Molecular Pharmacology Branch, DTP, NCI, 2025).
# System: 777334-354-R2-J4-PDC tumor spheroids with HUVEC/MSC, viability
# Test: Anticancer human tumor 777334-354-R2-J4-PDC patient-derived pancreatic adenocarcinoma cell line growth inhibition [GQUAD]
# Conditions: for IC50: curve of first compound; for viability, T/C: stronger effect = lower value
# Text: DNA G-quadruplex Stabilizer Agents in Combinations in Complex Spheroids
# A high-throughput screen of multi-cell type tumor spheroids was designed to identify active combinations of DNA G-quadruplex stabilizer agents and targeted small molecules. Complex spheroids include a stromal component modeled by human endothelial cells (HUVEC) and fibroblasts modeled by human mesenchymal stem cells (MSCs). The concentration ranges selected for each drug and investigational agent were based upon clinically achievable concentrations if the clinical Cmax of the agent was known.
# Compounds. The drugs and investigational agents: pidnarulex (CX-5461; NSC782164), APTO-253 (NSC789042), BRACO-19 (NSC847499), peposertib (NSC802822), ceralasertib (NSC780249), elimusertib (NSC800525), camonsertib (NSC841442), AZD-1390 (NSC803789), olaparib (NSC753686), talazoparib (NSC767125), ART-558 (NSC835418), sotorasib (NSC818433), MRTX-1133 (NSC836407), SN-38 (NSC673596), topotecan (NSC609699), etoposide (NSC141540), doxorubicin (NSC123127), gemcitabine (NSC613327), 5-fluorouracil (NSC19893), paclitaxel (NSC125973), vemurafenib (NSC761431), panobinostat (NSC761190), R-306465 (JNJ-16241199; NSC773264), adavosertib (NSC754352), TP-3654 (NSC805149), carboplatin (NSC241240), KSQ-4279 (NSC840948), and staurosporine (NSC755774) were obtained from the National Cancer Institute (NCI) Developmental Therapeutics Program Chemical Repository (34). The FDA-approved anticancer drug set is available from the NCI Developmental Therapeutics Program. […] The stock solutions were prepared in dimethyl sulfoxide (DMSO, Sigma-Aldrich, St. Louis, MO, cat. D2650) at 800-fold the tested concentration and stored at -70 degrees C prior to their use. All drugs and investigational agents were tested over a range starting from a high concentration at or near the clinical Cmax and decreasing in half-log increments. If the clinical Cmax for an agent had not been determined, the highest concentration tested was 10 microM.
# 2.3 Cell Culture. All cells were maintained in an incubator at 37 degrees C and 5% CO2 with 95% humidity. The PDC lines were cultured according to standard operating procedures established by the NCI PDMR. All PDCs were thawed and cultured in Matrigel-coated flasks prepared with a working solution of 1X Ham's F-12 nutrient mix, without supplementation (Invitrogen, cat. 11765054), 100 U/mL penicillin-streptomycin (Invitrogen, cat. 15140122), and 2.5% Matrigel (Corning Inc., cat. 354248) for the first three passages. The 857933-349-R-J2-PDC line was cultured in 6C/Colon 1B media, which includes advanced DMEM/F-12 (Thermo Fisher Scientific, cat. 12634028), 10 mM HEPES (Thermo Fisher Scientific, cat. 15630080), 1X GlutaMAX supplement (Thermo Fisher Scientific, cat. 35050061), 0.1 mg/mL primocin (InvivoGen, cat. ant-pm-2), 10% defined fetal bovine serum, heat inactivated (HyClone Laboratories Inc., cat. SH30070.03HI), 50% L-WRN conditioned media (ATCC, cat. CRL-3276), 1.25 mM N-Acetyl-L-cysteine (Sigma-Aldrich, cat. A9165), 10 mM nicotinamide (Sigma-Aldrich, cat. N0636), 1X B-27 supplement (Thermo Fisher Scientific, cat. 17504044), 1X N-2 supplement (Thermo Fisher Scientific, cat. 17502048), 10 microM Y-27632 dihydrochloride (Tocris Bioscience, cat. 1254), and 50 ng/mL human EGF recombinant protein (Thermo Fisher Scientific, cat. PHG0311). The 485176-168-R4-J1-PDC line was cultured in Panc media, which includes all 6C/Colon 1B media components plus 100 ng/mL human FGF-10 (Thermo Fisher Scientific, cat. 100-26), 500 nM SB-431542 (Selleckchem, cat. S1067), and gastrin (Tocris, cat. 3006).
# […]
# [1] = second compound 0.0316 µM, first compound 0.0316 µM
# [2] = second compound 0.0316 µM, first compound 0.1 µM
# [3] = second compound 0.0316 µM, first compound 0.316 µM
# [4] = second compound 0.0316 µM, first compound 1 µM
# [5] = second compound 0.0316 µM, first compound 3.16 µM
# [6] = second compound 0.0316 µM, first compound 10 µM
# [7] = second compound 0.1 µM, first compound 0.0316 µM
# [8] = second compound 0.1 µM, first compound 0.1 µM
# [9] = second compound 0.1 µM, first compound 0.316 µM
# [10] = second compound 0.1 µM, first compound 1 µM
# [11] = second compound 0.1 µM, first compound 3.16 µM
# [12] = second compound 0.1 µM, first compound 10 µM
# [13] = second compound 0.316 µM, first compound 0.0316 µM
# [14] = second compound 0.316 µM, first compound 0.1 µM
# [15] = second compound 0.316 µM, first compound 0.316 µM
# [16] = second compound 0.316 µM, first compound 1 µM
# [17] = second compound 0.316 µM, first compound 3.16 µM
# [18] = second compound 0.316 µM, first compound 10 µM
# [19] = second compound 1 µM, first compound 0.0316 µM
# [20] = second compound 1 µM, first compound 0.1 µM
# [21] = second compound 1 µM, first compound 0.316 µM
# [22] = second compound 1 µM, first compound 1 µM
# [23] = second compound 1 µM, first compound 3.16 µM
# [24] = second compound 1 µM, first compound 10 µM
# [25] = second compound 3.16 µM, first compound 0.0316 µM
# [26] = second compound 3.16 µM, first compound 0.1 µM
# [27] = second compound 3.16 µM, first compound 0.316 µM
# [28] = second compound 3.16 µM, first compound 1 µM
# [29] = second compound 3.16 µM, first compound 3.16 µM
# [30] = second compound 3.16 µM, first compound 10 µM
# [31] = second compound 10 µM, first compound 0.0316 µM
# [32] = second compound 10 µM, first compound 0.1 µM
# [33] = second compound 10 µM, first compound 0.316 µM
# [34] = second compound 10 µM, first compound 1 µM
# [35] = second compound 10 µM, first compound 3.16 µM
# [36] = second compound 10 µM, first compound 10 µM
# 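Note: spheroids exposed to compounds for 7 days before readout.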
compound,measurement,setting,value
CC(C)(O)C1CCC(Nc2ccc3ncc(-c4cccc(C(F)(F)F)c4)n3n2)CC1 (centres undefined) + Cc1cnc(CNC(=O)c2c(=O)c3ccc(N4CCCN(C)CC4)nc3n3c2sc2ccccc23)cn1,IC50,second compound 0.0316 µM,0.88 µM
same,IC50,second compound 0.1 µM,0.806 µM
same,IC50,second compound 0.316 µM,0.838 µM
same,IC50,second compound 1 µM,0.913 µM
same,IC50,second compound 3.16 µM,0.776 µM
same,IC50,second compound 10 µM,< 0.0316 µM
same,"viability, T/C",[1],105%
same,"viability, T/C",[2],74%
same,"viability, T/C",[3],94.5%
same,"viability, T/C",[4],44.8%
same,"viability, T/C",[5],27.7%
same,"viability, T/C",[6],35.2%
same,"viability, T/C",[7],85%
same,"viability, T/C",[8],74%
same,"viability, T/C",[9],79.5%
same,"viability, T/C",[10],43.2%
same,"viability, T/C",[11],29.1%
same,"viability, T/C",[12],35.4%
same,"viability, T/C",[13],80.8%
same,"viability, T/C",[14],71.5%
same,"viability, T/C",[15],71.5%
same,"viability, T/C",[16],46.5%
same,"viability, T/C",[17],29.1%
same,"viability, T/C",[18],31.3%
same,"viability, T/C",[19],63%
same,"viability, T/C",[20],67.4%
same,"viability, T/C",[21],67%
same,"viability, T/C",[22],48.6%
same,"viability, T/C",[23],33%
same,"viability, T/C",[24],30.7%
same,"viability, T/C",[25],61.4%
same,"viability, T/C",[26],68.9%
same,"viability, T/C",[27],56.9%
same,"viability, T/C",[28],48.4%
same,"viability, T/C",[29],24.4%
same,"viability, T/C",[30],23.9%
same,"viability, T/C",[31],51.5%
same,"viability, T/C",[32],40.1%
same,"viability, T/C",[33],48.3%
same,"viability, T/C",[34],36.1%
same,"viability, T/C",[35],0.23%
same,"viability, T/C",[36],0.19%
CCCS(=O)(=O)Nc1ccc(F)c(C(=O)c2c[nH]c3ncc(-c4ccc(Cl)cc4)cc23)c1F + Cc1cnc(CNC(=O)c2c(=O)c3ccc(N4CCCN(C)CC4)nc3n3c2sc2ccccc23)cn1,IC50,second compound 0.0316 µM,7.16 µM
same,IC50,second compound 0.1 µM,6.93 µM
same,IC50,second compound 0.316 µM,6.74 µM
same,IC50,second compound 1 µM,7.16 µM
same,IC50,second compound 3.16 µM,> 10 µM
same,IC50,second compound 10 µM,3.87 µM
same,"viability, T/C",[1],99.3%
same,"viability, T/C",[2],89.1%
same,"viability, T/C",[3],105%
same,"viability, T/C",[4],94.3%
same,"viability, T/C",[5],106%
same,"viability, T/C",[6],30%
same,"viability, T/C",[7],83.5%
same,"viability, T/C",[8],88.7%
same,"viability, T/C",[9],104%
same,"viability, T/C",[10],95.5%
same,"viability, T/C",[11],88%
same,"viability, T/C",[12],32.1%
same,"viability, T/C",[13],88.7%
same,"viability, T/C",[14],91.7%
same,"viability, T/C",[15],69%
same,"viability, T/C",[16],92.6%
same,"viability, T/C",[17],93.3%
same,"viability, T/C",[18],30.7%
same,"viability, T/C",[19],68.8%
same,"viability, T/C",[20],77.6%
same,"viability, T/C",[21],78.5%
same,"viability, T/C",[22],71.2%
same,"viability, T/C",[23],74.9%
same,"viability, T/C",[24],40.2%
same,"viability, T/C",[25],59%
same,"viability, T/C",[26],61.1%
same,"viability, T/C",[27],68.9%
same,"viability, T/C",[28],71.2%
same,"viability, T/C",[29],72%
same,"viability, T/C",[30],43.1%
same,"viability, T/C",[31],52.7%
same,"viability, T/C",[32],48.6%
same,"viability, T/C",[33],68.2%
same,"viability, T/C",[34],68.4%
same,"viability, T/C",[35],65.2%
same,"viability, T/C",[36],0.24%
